Results published in the kinase profiling compilation of Christmann-Franck et al. (2016).
Where “and” joins values, the source holds several entries; their conditions need not be identical. Identical values can stand only once.

Experiments:
Experiment in all cases: radiometric filter-binding kinase assay, Kinase HotSpot
Conditions in all cases: compound 0.5 µM; ATP 10 µM
CAMK4 (human) = CAMK4 (human) (UniProt Q16566)
AURKA (human) = AURKA (human) (UniProt O14965)
EPHA3 (human) = EPHA3 (human) (UniProt P29320)
MAP3K14 (human) = MAP3K14 (human) (UniProt Q99558)
ROCK2 (human) = ROCK2 (human) (UniProt O75116)
GSG2 (human) = GSG2 (human) (UniProt Q8TF76)
RPS6KB2 (human) = RPS6KB2 (human) (UniProt Q9UBS0)
BLK (human) = BLK (human) (UniProt P51451)
MST4 (human) = MST4 (human) (UniProt Q9P289)
EPHB2 (human) = EPHB2 (human) (UniProt P29323)
PRKX (human) = PRKX (human) (UniProt P51817)
MINK1 (human) = MINK1 (human) (UniProt Q8N4C8)
DYRK3 (human) = DYRK3 (human) (UniProt O43781)
EPHA2 (human) = EPHA2 (human) (UniProt P29317)
PAK3 (human) = PAK3 (human) (UniProt O75914)
MARK2 (human) = MARK2 (human) (UniProt Q7KZI7)
PNCK (human) = PNCK (human) (UniProt Q6P2M8)
PDGFRA (human) = PDGFRA (human) (UniProt P16234)
FLT3 (human) = FLT3 (human) (UniProt P36888)
MAP2K1 (human) = MAP2K1 (human) (UniProt Q02750)
BRSK1 (human) = BRSK1 (human) (UniProt Q8TDC3)
TXK (human) = TXK (human) (UniProt P42681)
IRAK1 (human) = IRAK1 (human) (UniProt P51617)
DAPK3 (human) = DAPK3 (human) (UniProt O43293)
EPHA4 (human) = EPHA4 (human) (UniProt P54764)
TEK (human) = TEK (human) (UniProt Q02763)
AURKB (human) = AURKB (human) (UniProt Q96GD4)
PRKG1 (human) = PRKG1 (human) (UniProt Q13976)
DSTYK (human) = DSTYK (human) (UniProt Q6XUX3)
PDGFRB (human) = PDGFRB (human) (UniProt P09619)
FGFR3 (human) = FGFR3 (human) (UniProt P22607)
CHEK2 (human) = CHEK2 (human) (UniProt O96017)
CAMK2G (human) = CAMK2G (human) (UniProt Q13555)
FYN (human) = FYN (human) (UniProt P06241)
LTK (human) = LTK (human) (UniProt P29376)
ABL2 (human) = ABL2 (human) (UniProt P42684)
PRKCE (human) = PRKCE (human) (UniProt Q02156)
MLTK (human) = MLTK (human) (UniProt Q9NYL2)
MAPK11 (human) = MAPK11 (human) (UniProt Q15759)
CDK1 CCNA2 (human) = CDK1 CCNA2 (human) (UniProt P06493+P20248)
PAK1 (human) = PAK1 (human) (UniProt Q13153)
BMX (human) = BMX (human) (UniProt P51813)

EPHA4 (human), sequence (P54764 whole entry, looked up): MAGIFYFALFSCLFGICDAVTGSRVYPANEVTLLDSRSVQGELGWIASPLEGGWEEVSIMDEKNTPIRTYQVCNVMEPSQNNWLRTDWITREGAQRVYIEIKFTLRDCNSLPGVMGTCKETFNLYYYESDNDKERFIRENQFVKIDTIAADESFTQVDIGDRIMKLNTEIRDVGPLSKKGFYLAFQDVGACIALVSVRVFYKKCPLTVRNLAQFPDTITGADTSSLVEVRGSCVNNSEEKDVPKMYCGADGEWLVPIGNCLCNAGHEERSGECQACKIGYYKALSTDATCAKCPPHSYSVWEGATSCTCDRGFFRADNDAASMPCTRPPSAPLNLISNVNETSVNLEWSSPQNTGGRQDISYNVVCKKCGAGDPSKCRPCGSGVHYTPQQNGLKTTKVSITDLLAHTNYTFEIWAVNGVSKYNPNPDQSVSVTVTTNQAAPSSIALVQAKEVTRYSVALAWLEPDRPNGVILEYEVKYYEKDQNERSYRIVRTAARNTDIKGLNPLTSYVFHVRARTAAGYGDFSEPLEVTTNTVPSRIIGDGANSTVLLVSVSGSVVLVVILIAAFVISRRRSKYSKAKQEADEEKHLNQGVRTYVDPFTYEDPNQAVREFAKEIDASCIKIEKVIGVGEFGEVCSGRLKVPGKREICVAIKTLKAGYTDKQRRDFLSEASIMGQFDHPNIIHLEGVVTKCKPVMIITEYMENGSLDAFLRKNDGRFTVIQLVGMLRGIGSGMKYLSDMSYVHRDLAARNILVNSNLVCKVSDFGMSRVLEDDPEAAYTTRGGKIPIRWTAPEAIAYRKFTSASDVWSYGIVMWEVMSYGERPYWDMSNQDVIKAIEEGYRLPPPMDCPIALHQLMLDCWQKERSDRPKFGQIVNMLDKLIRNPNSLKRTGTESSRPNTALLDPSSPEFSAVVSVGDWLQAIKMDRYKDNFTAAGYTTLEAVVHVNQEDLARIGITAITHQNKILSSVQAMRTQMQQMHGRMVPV
PDGFRA (human), sequence (P16234 whole entry, looked up): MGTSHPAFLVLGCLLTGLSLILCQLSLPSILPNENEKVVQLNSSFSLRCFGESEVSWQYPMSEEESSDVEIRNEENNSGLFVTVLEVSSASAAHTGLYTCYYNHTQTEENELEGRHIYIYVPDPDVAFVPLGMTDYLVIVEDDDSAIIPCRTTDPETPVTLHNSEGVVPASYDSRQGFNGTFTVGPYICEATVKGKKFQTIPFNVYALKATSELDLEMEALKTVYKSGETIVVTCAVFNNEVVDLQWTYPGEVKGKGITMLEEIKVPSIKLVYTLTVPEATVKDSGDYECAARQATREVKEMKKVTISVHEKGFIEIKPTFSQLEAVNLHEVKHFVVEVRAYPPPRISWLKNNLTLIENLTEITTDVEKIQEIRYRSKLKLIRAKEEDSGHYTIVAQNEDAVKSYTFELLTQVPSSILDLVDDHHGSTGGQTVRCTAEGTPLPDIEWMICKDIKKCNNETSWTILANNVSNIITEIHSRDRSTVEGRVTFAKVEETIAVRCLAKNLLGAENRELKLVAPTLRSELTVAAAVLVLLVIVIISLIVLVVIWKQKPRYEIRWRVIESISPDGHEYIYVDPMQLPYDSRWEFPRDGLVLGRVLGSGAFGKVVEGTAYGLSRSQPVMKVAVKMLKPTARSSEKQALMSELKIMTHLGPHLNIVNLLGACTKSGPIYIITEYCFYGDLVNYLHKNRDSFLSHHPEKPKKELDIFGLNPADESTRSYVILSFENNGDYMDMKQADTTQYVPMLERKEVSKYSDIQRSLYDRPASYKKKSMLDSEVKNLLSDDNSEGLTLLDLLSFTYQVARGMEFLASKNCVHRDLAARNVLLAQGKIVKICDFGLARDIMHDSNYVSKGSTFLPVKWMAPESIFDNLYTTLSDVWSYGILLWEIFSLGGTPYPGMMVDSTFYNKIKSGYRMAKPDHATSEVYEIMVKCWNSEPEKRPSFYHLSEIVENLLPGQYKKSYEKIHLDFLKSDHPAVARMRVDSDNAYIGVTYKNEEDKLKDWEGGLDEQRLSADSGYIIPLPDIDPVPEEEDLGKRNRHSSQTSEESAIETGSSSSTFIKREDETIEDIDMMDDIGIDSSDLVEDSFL
MINK1 (human), sequence (Q8N4C8 whole entry, looked up): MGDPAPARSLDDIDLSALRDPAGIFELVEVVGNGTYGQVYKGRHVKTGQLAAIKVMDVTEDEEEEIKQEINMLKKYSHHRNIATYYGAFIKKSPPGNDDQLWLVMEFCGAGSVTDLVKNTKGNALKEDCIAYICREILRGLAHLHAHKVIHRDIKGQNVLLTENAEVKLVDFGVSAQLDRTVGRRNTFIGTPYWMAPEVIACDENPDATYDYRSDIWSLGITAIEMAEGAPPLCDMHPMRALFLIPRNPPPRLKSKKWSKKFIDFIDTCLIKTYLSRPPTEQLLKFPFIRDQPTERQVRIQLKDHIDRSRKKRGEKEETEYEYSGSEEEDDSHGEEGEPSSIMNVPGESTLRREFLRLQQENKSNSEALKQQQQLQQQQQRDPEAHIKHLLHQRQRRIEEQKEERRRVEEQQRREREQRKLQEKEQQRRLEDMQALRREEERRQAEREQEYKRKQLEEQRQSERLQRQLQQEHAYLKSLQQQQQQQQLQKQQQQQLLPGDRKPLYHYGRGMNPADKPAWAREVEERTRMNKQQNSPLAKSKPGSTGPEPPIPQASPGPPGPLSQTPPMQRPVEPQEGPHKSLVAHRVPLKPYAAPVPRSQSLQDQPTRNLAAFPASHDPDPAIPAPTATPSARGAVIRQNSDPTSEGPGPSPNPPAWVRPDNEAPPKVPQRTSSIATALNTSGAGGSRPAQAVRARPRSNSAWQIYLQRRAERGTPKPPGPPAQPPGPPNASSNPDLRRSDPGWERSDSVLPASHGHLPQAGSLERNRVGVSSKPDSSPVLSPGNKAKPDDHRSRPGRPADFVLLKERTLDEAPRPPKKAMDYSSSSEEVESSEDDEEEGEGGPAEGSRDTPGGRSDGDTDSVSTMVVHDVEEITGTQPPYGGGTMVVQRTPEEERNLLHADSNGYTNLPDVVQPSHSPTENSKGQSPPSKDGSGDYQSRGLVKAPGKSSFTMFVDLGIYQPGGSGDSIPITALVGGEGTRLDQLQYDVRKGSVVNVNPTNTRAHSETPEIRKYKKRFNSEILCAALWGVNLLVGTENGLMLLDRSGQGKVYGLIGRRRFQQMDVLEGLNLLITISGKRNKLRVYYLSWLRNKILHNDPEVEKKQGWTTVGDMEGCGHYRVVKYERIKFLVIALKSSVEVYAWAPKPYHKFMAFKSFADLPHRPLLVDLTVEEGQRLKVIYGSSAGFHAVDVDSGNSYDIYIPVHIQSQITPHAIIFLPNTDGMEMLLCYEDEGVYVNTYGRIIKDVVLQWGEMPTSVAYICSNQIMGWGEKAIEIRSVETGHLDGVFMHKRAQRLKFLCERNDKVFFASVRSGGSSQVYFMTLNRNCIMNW
GSG2 (human), sequence (Q8TF76 whole entry, looked up): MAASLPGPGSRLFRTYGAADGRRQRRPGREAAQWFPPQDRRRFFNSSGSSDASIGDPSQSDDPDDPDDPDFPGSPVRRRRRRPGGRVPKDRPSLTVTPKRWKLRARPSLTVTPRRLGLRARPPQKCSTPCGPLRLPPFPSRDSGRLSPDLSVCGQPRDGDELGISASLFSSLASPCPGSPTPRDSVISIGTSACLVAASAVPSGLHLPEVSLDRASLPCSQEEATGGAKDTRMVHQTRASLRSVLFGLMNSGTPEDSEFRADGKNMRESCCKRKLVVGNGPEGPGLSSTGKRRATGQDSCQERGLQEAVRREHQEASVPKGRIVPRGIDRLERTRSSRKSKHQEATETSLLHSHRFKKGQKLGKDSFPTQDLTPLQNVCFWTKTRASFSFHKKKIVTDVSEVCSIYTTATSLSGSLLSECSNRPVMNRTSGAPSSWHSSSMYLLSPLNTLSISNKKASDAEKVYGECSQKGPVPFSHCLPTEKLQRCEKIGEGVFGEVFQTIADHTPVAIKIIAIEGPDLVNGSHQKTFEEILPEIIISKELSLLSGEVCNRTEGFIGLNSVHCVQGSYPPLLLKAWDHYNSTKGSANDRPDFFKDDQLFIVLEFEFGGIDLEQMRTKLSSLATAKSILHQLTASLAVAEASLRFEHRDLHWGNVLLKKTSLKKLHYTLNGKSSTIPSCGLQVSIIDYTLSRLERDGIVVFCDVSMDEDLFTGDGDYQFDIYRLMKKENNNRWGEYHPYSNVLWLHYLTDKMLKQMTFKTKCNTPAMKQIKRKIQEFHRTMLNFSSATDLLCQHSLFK
CAMK4 (human), sequence (Q16566 whole entry, looked up): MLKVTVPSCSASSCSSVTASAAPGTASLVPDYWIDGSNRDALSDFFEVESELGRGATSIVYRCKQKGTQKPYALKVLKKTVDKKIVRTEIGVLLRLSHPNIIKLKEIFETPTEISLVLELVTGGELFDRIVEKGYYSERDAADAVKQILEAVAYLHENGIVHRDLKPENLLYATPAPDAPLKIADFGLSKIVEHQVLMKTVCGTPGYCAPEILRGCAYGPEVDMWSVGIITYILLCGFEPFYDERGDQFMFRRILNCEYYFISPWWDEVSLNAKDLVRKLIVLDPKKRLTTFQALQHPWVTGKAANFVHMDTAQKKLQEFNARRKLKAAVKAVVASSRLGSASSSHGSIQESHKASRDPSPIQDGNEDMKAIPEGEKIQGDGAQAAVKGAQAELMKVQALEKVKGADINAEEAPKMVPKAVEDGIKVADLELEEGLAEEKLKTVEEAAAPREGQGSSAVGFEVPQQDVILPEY
PRKX (human), sequence (P51817 whole entry, looked up): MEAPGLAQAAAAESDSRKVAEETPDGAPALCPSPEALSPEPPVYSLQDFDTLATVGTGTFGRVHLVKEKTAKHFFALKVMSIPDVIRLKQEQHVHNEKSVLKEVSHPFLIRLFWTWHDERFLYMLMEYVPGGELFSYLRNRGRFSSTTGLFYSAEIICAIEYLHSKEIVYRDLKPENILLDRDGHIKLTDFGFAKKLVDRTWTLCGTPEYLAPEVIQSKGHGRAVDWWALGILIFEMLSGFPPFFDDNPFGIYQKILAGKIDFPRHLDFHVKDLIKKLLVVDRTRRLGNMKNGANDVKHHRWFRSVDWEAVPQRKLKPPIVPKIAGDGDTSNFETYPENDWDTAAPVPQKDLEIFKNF

Cn1cc(/C=C2\C(=O)Nc3ccc(S(N)(=O)=O)cc32)c2ccccc21
residual activity (CAMK4 (human)): 96.4% | residual activity (AURKA (human)): 20% | residual activity (EPHA3 (human)): 80.9% | residual activity (MAP3K14 (human)): 123% | residual activity (ROCK2 (human)): 41% | residual activity (GSG2 (human)): 93.1% | residual activity (RPS6KB2 (human)): 94.6% | residual activity (BLK (human)): 42.9% | residual activity (MST4 (human)): 101% | residual activity (EPHB2 (human)): 84.8% | residual activity (PRKX (human)): 81% | residual activity (MINK1 (human)): 53.7% | residual activity (DYRK3 (human)): 89.7% | residual activity (EPHA2 (human)): 93% | residual activity (PAK3 (human)): 93.8% | residual activity (MARK2 (human)): 45.5% | residual activity (PNCK (human)): 58.1% | residual activity (PDGFRA (human)): 81% | residual activity (FLT3 (human)): 1.56% | residual activity (MAP2K1 (human)): 63.6% | residual activity (BRSK1 (human)): 47.8% | residual activity (TXK (human)): 51.3% | residual activity (IRAK1 (human)): 14.2% | residual activity (DAPK3 (human)): 94.1% | residual activity (EPHA4 (human)): 80.5% | residual activity (TEK (human)): 95.8% | residual activity (AURKB (human)): 10.5% | residual activity (PRKG1 (human)): 81.1% and 87.2% | residual activity (DSTYK (human)): 92.5% | residual activity (PDGFRB (human)): 66% | residual activity (FGFR3 (human)): 33.8% | residual activity (CHEK2 (human)): 1.3% | residual activity (CAMK2G (human)): 91.9% | residual activity (FYN (human)): 45.7% | residual activity (LTK (human)): 54.5% | residual activity (ABL2 (human)): 54.2% | residual activity (PRKCE (human)): 77.3% | residual activity (MLTK (human)): 95% | residual activity (MAPK11 (human)): 93.8% | residual activity (CDK1 CCNA2 (human)): 56.9% | residual activity (PAK1 (human)): 90.8% | residual activity (BMX (human)): 77%

N#Cc1c(NC(=O)c2cccc3ccccc23)sc2c1CCCC2
residual activity (CAMK4 (human)): 108% | residual activity (AURKA (human)): 101% | residual activity (EPHA3 (human)): 103% | residual activity (MAP3K14 (human)): 111% | residual activity (ROCK2 (human)): 98% | residual activity (GSG2 (human)): 99% | residual activity (RPS6KB2 (human)): 100% | residual activity (BLK (human)): 105% | residual activity (MST4 (human)): 102% | residual activity (EPHB2 (human)): 97.5% | residual activity (PRKX (human)): 103% | residual activity (MINK1 (human)): 95.2% | residual activity (DYRK3 (human)): 128% | residual activity (PAK3 (human)): 105% | residual activity (MARK2 (human)): 105% | residual activity (PNCK (human)): 104% | residual activity (PDGFRA (human)): 101% | residual activity (FLT3 (human)): 111% | residual activity (MAP2K1 (human)): 98.4% | residual activity (BRSK1 (human)): 97% | residual activity (TXK (human)): 97% | residual activity (IRAK1 (human)): 104% | residual activity (DAPK3 (human)): 110% | residual activity (EPHA4 (human)): 99% | residual activity (TEK (human)): 104% | residual activity (AURKB (human)): 103% | residual activity (PRKG1 (human)): 101% and 94.6% | residual activity (DSTYK (human)): 100% | residual activity (PDGFRB (human)): 98.9% | residual activity (FGFR3 (human)): 101% | residual activity (CHEK2 (human)): 98.5% | residual activity (CAMK2G (human)): 99.6% | residual activity (FYN (human)): 102% | residual activity (LTK (human)): 102% | residual activity (ABL2 (human)): 98.9% | residual activity (PRKCE (human)): 99.1% | residual activity (MLTK (human)): 93.2% | residual activity (MAPK11 (human)): 104% | residual activity (CDK1 CCNA2 (human)): 92.1% | residual activity (PAK1 (human)): 97.4% | residual activity (BMX (human)): 101%

Nc1ncnc2c1cnn2-c1ccccc1
residual activity (CAMK4 (human)): 104% | residual activity (AURKA (human)): 91.9% | residual activity (EPHA3 (human)): 95% | residual activity (MAP3K14 (human)): 120% | residual activity (ROCK2 (human)): 83.2% | residual activity (GSG2 (human)): 94.8% | residual activity (RPS6KB2 (human)): 87.5% | residual activity (BLK (human)): 100% | residual activity (MST4 (human)): 82.2% | residual activity (EPHB2 (human)): 96.2% | residual activity (PRKX (human)): 95.3% | residual activity (MINK1 (human)): 88.9% | residual activity (DYRK3 (human)): 96.8% | residual activity (EPHA2 (human)): 96% | residual activity (PAK3 (human)): 98.8% | residual activity (MARK2 (human)): 95.3% | residual activity (PNCK (human)): 97.5% | residual activity (PDGFRA (human)): 103% | residual activity (FLT3 (human)): 88.9% | residual activity (MAP2K1 (human)): 93.9% | residual activity (BRSK1 (human)): 90.2% | residual activity (TXK (human)): 94.8% | residual activity (IRAK1 (human)): 85.8% | residual activity (DAPK3 (human)): 103% | residual activity (EPHA4 (human)): 96.2% | residual activity (TEK (human)): 92.2% | residual activity (AURKB (human)): 99.2% | residual activity (PRKG1 (human)): 107% and 91.3% | residual activity (DSTYK (human)): 94.5% | residual activity (PDGFRB (human)): 94.7% | residual activity (FGFR3 (human)): 97.9% | residual activity (CHEK2 (human)): 95.5% | residual activity (CAMK2G (human)): 105% | residual activity (FYN (human)): 97.8% | residual activity (LTK (human)): 96.8% | residual activity (ABL2 (human)): 93% | residual activity (PRKCE (human)): 98.3% | residual activity (MLTK (human)): 92.5% | residual activity (MAPK11 (human)): 99.9% | residual activity (PAK1 (human)): 94.2% | residual activity (BMX (human)): 96.8%

FC(F)(F)c1ccc(/C=C/c2nc(COc3ccc(CCCCn4ccnn4)cc3)co2)cc1
residual activity (CAMK4 (human)): 97.7% | residual activity (AURKA (human)): 111% | residual activity (EPHA3 (human)): 92.7% | residual activity (MAP3K14 (human)): 95.8% | residual activity (ROCK2 (human)): 99.7% | residual activity (GSG2 (human)): 105% | residual activity (RPS6KB2 (human)): 103% | residual activity (BLK (human)): 102% | residual activity (MST4 (human)): 98% | residual activity (EPHB2 (human)): 98.3% | residual activity (PRKX (human)): 95.3% | residual activity (MINK1 (human)): 96.8% | residual activity (DYRK3 (human)): 109% | residual activity (EPHA2 (human)): 102% | residual activity (PAK3 (human)): 101% | residual activity (MARK2 (human)): 105% | residual activity (PNCK (human)): 96.6% | residual activity (PDGFRA (human)): 104% | residual activity (FLT3 (human)): 87.8% | residual activity (MAP2K1 (human)): 120% | residual activity (BRSK1 (human)): 103% | residual activity (TXK (human)): 101% | residual activity (IRAK1 (human)): 99.5% | residual activity (DAPK3 (human)): 105% | residual activity (EPHA4 (human)): 98.8% | residual activity (TEK (human)): 95.8% | residual activity (AURKB (human)): 98% | residual activity (PRKG1 (human)): 75.9% and 98.1% | residual activity (DSTYK (human)): 88.8% | residual activity (PDGFRB (human)): 98.1% | residual activity (FGFR3 (human)): 88.4% | residual activity (CHEK2 (human)): 103% | residual activity (CAMK2G (human)): 99% | residual activity (FYN (human)): 97% | residual activity (LTK (human)): 104% | residual activity (PRKCE (human)): 101% | residual activity (MLTK (human)): 98.5% | residual activity (MAPK11 (human)): 102% | residual activity (CDK1 CCNA2 (human)): 92.6% | residual activity (PAK1 (human)): 104% | residual activity (BMX (human)): 99%
